In PubChem BioAssay AID256 (DTP/NCI, 2004):
Several values for one entry are separate records, joined by “and”; a condition that tells them apart may be missing. Equal entries are not always repeated. Toxic doses and inconclusive results are not listed.

Test system: CD2F1 mice, L1210 leukemia ip, survival T/C
Assay: NCI In Vivo Anticancer Drug Screen. Data for tumor model L1210 Leukemia (intraperitoneal) in CD2F1 (CDF1) mice
Details: higher = longer survival
Method in brief: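 Vehicle-treated tumor-bearing mice served as controls (C) for compound-treated mice (T). Reported figure is T divided by C.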

[1] = endpoint: mean survival time, dose: 133.0 mg/kg/injection, schedule: Q01DX009 (ip), vehicle: saline
[2] = endpoint: mean survival time, dose: 100.0 mg/kg/injection, schedule: Q01DX009 (ip), vehicle: saline with Tween-80
[3] = endpoint: mean survival time, dose: 200.0 mg/kg/injection, schedule: Q01DX009 (ip), vehicle: saline with Tween-80

## OCC1OC(n2c(C(F)(F)F)nc3cc4ccccc4cc32)C(O)C1O (stereo unspecified)
endpoint: median survival time, dose: 22.5 mg/kg/injection, schedule: Q01DX005 (ip), vehicle: saline with Tween-80
  T/C: 103 % of control
endpoint: median survival time, dose: 45.0 mg/kg/injection, schedule: Q01DX005 (ip), vehicle: saline with Tween-80
  T/C: 103 % of control
endpoint: median survival time, dose: 90.0 mg/kg/injection, schedule: Q01DX005 (ip), vehicle: saline with Tween-80
  T/C: 93 % of control
endpoint: median survival time, dose: 180.0 mg/kg/injection, schedule: Q01DX005 (ip), vehicle: saline with Tween-80
  T/C: 98 % of control

## C(CC1CO1)CC1OC1CC1CO1 (stereo unspecified)
endpoint: mean survival time, dose: 39.0 mg/kg/injection, schedule: Q01DX009 (ip), vehicle: saline
  T/C: 109 % of control
endpoint: mean survival time, dose: 75.0 mg/kg/injection, schedule: Q01DX001 (ip), vehicle: saline
  T/C: 109 % of control
[1]
  T/C: 156 % of control
endpoint: mean survival time, dose: 150.0 mg/kg/injection, schedule: Q01DX001 (ip), vehicle: saline
  T/C: 119 % of control

## N#CC1=C(C#N)C(=O)c2ccccc2C1=O
endpoint: mean survival time, dose: 25.0 mg/kg/injection, schedule: Q01DX009 (ip), vehicle: saline with Tween-80
  T/C: 98 % of control
endpoint: mean survival time, dose: 50.0 mg/kg/injection, schedule: Q01DX009 (ip), vehicle: saline with Tween-80
  T/C: 97 % of control
[2]
  T/C: 88 % of control

## Nc1nc(F)nc2c1ncn2C1OC(COP(=O)(O)O)C(O)C1O (stereo unspecified)
endpoint: mean survival time, dose: 6.25 mg/kg/injection, schedule: Q01DX009 (ip), vehicle: saline
  T/C: 98 % of control
endpoint: mean survival time, dose: 12.5 mg/kg/injection, schedule: Q01DX009 (ip), vehicle: saline
  T/C: 104 % of control
endpoint: mean survival time, dose: 25.0 mg/kg/injection, schedule: Q01DX009 (ip), vehicle: saline
  T/C: 118 % of control
endpoint: mean survival time, dose: 50.0 mg/kg/injection, schedule: Q01DX009 (ip), vehicle: saline
  T/C: 114 % of control
endpoint: mean survival time, dose: 60.0 mg/kg/injection, schedule: Q01DX009 (ip), vehicle: saline
  T/C: 124 % of control
endpoint: mean survival time, dose: 88.98 mg/kg/injection, schedule: Q01DX009 (ip), vehicle: saline with Tween-80
  T/C: 174 % of control
endpoint: mean survival time, dose: 90.0 mg/kg/injection, schedule: Q01DX009 (ip), vehicle: saline
  T/C: 182 % of control
endpoint: mean survival time, dose: 100.0 mg/kg/injection, schedule: Q01DX009 (ip), vehicle: saline
  T/C: 171 % of control
[1]
  T/C: 183 % of control
endpoint: mean survival time, dose: 133.4 mg/kg/injection, schedule: Q01DX009 (ip), vehicle: saline with Tween-80
  T/C: 244 % of control
endpoint: mean survival time, dose: 133.4 mg/kg/injection, schedule: Q01DX009 (ip), vehicle: saline
  T/C: 180 % of control
endpoint: mean survival time, dose: 135.0 mg/kg/injection, schedule: Q01DX009 (ip), vehicle: saline
  T/C: 288 % of control and 156 % of control
[3]
  T/C: 100 % of control
endpoint: mean survival time, dose: 200.0 mg/kg/injection, schedule: Q01DX009 (ip), vehicle: saline
  T/C: 231 % of control [middle of 4 runs]
endpoint: mean survival time, dose: 219.0 mg/kg/injection, schedule: Q01DX009 (ip), vehicle: saline
  T/C: 362 % of control
endpoint: mean survival time, dose: 292.0 mg/kg/injection, schedule: Q01DX009 (ip), vehicle: saline
  T/C: 98 % of control
endpoint: median survival time, dose: 32.0 mg/kg/injection, schedule: Q01DX009 (ip), vehicle: saline
  T/C: 114 % of control and 112 % of control
endpoint: median survival time, dose: 40.0 mg/kg/injection, schedule: Q03HX024 (ip), vehicle: sodium bicarbonate
  T/C: 167 % of control
endpoint: median survival time, dose: 47.0 mg/kg/injection, schedule: Q01DX009 (ip), vehicle: saline
  T/C: 114 % of control and 111 % of control
endpoint: median survival time, dose: 56.0 mg/kg/injection, schedule: Q03HX024 (ip), vehicle: sodium bicarbonate
  T/C: 193 % of control
endpoint: median survival time, dose: 85.0 mg/kg/injection, schedule: Q03HX024 (ip), vehicle: sodium bicarbonate
  T/C: 168 % of control
endpoint: median survival time, dose: 90.0 mg/kg/injection, schedule: Q01DX009 (ip), vehicle: saline
  T/C: 169 % of control and 185 % of control
endpoint: median survival time, dose: 98.8 mg/kg/injection, schedule: Q01DX009 (ip), vehicle: saline
  T/C: 178 % of control
endpoint: median survival time, dose: 100.0 mg/kg/injection, schedule: Q01DX001 (oral), vehicle: sodium bicarbonate
  T/C: 101 % of control
endpoint: median survival time, dose: 100.0 mg/kg/injection, schedule: Q01DX005 (oral), vehicle: sodium bicarbonate
  T/C: 111 % of control
endpoint: median survival time, dose: 105.0 mg/kg/injection, schedule: Q01DX009 (ip), vehicle: saline
  T/C: 172 % of control
endpoint: median survival time, dose: 110.0 mg/kg/injection, schedule: Q03HX008 (ip), vehicle: sodium bicarbonate
  T/C: 163 % of control
endpoint: median survival time, dose: 111.0 mg/kg/injection, schedule: Q01DX009 (ip), vehicle: saline
  T/C: 159 % of control
endpoint: median survival time, dose: 118.0 mg/kg/injection, schedule: Q01DX005 (ip), vehicle: sodium bicarbonate
  T/C: 175 % of control
endpoint: median survival time, dose: 125.0 mg/kg/injection, schedule: Q03HX024 (ip), vehicle: sodium bicarbonate
  T/C: 625 % of control
endpoint: median survival time, dose: 134.0 mg/kg/injection, schedule: Q01DX009 (ip), vehicle: saline
  T/C: 196 % of control and 202 % of control
endpoint: median survival time, dose: 148.0 mg/kg/injection, schedule: Q01DX009 (ip), vehicle: saline
  T/C: 235 % of control
endpoint: median survival time, dose: 157.0 mg/kg/injection, schedule: Q01DX009 (ip), vehicle: saline
  T/C: 182 % of control and 283 % of control
endpoint: median survival time, dose: 167.0 mg/kg/injection, schedule: Q01DX009 (ip), vehicle: saline
  T/C: 207 % of control
endpoint: median survival time, dose: 170.0 mg/kg/injection, schedule: Q03HX008 (ip), vehicle: sodium bicarbonate
  T/C: 190 % of control
endpoint: median survival time, dose: 175.0 mg/kg/injection, schedule: Q01DX009 (ip), vehicle: saline
  T/C: 207 % of control
endpoint: median survival time, dose: 177.0 mg/kg/injection, schedule: Q01DX005 (ip), vehicle: sodium bicarbonate
  T/C: 216 % of control
endpoint: median survival time, dose: 177.0 mg/kg/injection, schedule: Q01DX005 (iv), vehicle: sodium bicarbonate
  T/C: 171 % of control
endpoint: median survival time, dose: 200.0 mg/kg/injection, schedule: Q01DX001 (oral), vehicle: sodium bicarbonate
  T/C: 97 % of control
endpoint: median survival time, dose: 200.0 mg/kg/injection, schedule: Q01DX009 (ip), vehicle: saline
  T/C: 219 % of control and 198 % of control
endpoint: median survival time, dose: 200.0 mg/kg/injection, schedule: Q04DX003 (ip), vehicle: sodium bicarbonate
  T/C: 152 % of control
endpoint: median survival time, dose: 222.0 mg/kg/injection, schedule: Q01DX009 (ip), vehicle: saline
  T/C: 297 % of control
endpoint: median survival time, dose: 225.0 mg/kg/injection, schedule: Q01DX009 (ip), vehicle: saline
  T/C: 304 % of control
endpoint: median survival time, dose: 234.0 mg/kg/injection, schedule: Q01DX009 (ip), vehicle: saline
  T/C: 296 % of control
endpoint: median survival time, dose: 250.0 mg/kg/injection, schedule: Q01DX009 (ip), vehicle: saline
  T/C: 197 % of control and 284 % of control
endpoint: median survival time, dose: 250.0 mg/kg/injection, schedule: Q03HX008 (ip), vehicle: sodium bicarbonate
  T/C: 198 % of control
endpoint: median survival time, dose: 266.0 mg/kg/injection, schedule: Q01DX001 (ip), vehicle: sodium bicarbonate
  T/C: 115 % of control
endpoint: median survival time, dose: 266.0 mg/kg/injection, schedule: Q01DX005 (ip), vehicle: sodium bicarbonate
  T/C: 222 % of control
endpoint: median survival time, dose: 266.0 mg/kg/injection, schedule: Q01DX005 (iv), vehicle: sodium bicarbonate
  T/C: 195 % of control
endpoint: median survival time, dose: 300.0 mg/kg/injection, schedule: Q04DX003 (ip), vehicle: sodium bicarbonate
  T/C: 166 % of control
endpoint: median survival time, dose: 375.0 mg/kg/injection, schedule: Q01DX009 (ip), vehicle: saline
  T/C: 151 % of control
endpoint: median survival time, dose: 400.0 mg/kg/injection, schedule: Q01DX001 (iv), vehicle: sodium bicarbonate
  T/C: 120 % of control
endpoint: median survival time, dose: 400.0 mg/kg/injection, schedule: Q01DX001 (oral), vehicle: sodium bicarbonate
  T/C: 100 % of control
endpoint: median survival time, dose: 400.0 mg/kg/injection, schedule: Q01DX005 (iv), vehicle: sodium bicarbonate
  T/C: 91 % of control
endpoint: median survival time, dose: 450.0 mg/kg/injection, schedule: Q04DX003 (ip), vehicle: sodium bicarbonate
  T/C: 212 % of control
endpoint: median survival time, dose: 500.0 mg/kg/injection, schedule: Q01DX009 (ip), vehicle: saline
  T/C: 94 % of control
endpoint: median survival time, dose: 670.0 mg/kg/injection, schedule: Q04DX003 (ip), vehicle: sodium bicarbonate
  T/C: 222 % of control
endpoint: median survival time, dose: 800.0 mg/kg/injection, schedule: Q01DX001 (oral), vehicle: sodium bicarbonate
  T/C: 103 % of control
endpoint: median survival time, dose: 800.0 mg/kg/injection, schedule: Q01DX005 (oral), vehicle: sodium bicarbonate
  T/C: 150 % of control
endpoint: median survival time, dose: 1600.0 mg/kg/injection, schedule: Q01DX001 (oral), vehicle: sodium bicarbonate
  T/C: 113 % of control
endpoint: median survival time, dose: 1600.0 mg/kg/injection, schedule: Q01DX005 (oral), vehicle: sodium bicarbonate
  T/C: 175 % of control

## COC(C)(C)O/N=C(\C[n+]1ccccc1)c1ccccc1
endpoint: mean survival time, dose: 12.5 mg/kg/injection, schedule: Q01DX009 (ip), vehicle: water
  T/C: 95 % of control
endpoint: mean survival time, dose: 25.0 mg/kg/injection, schedule: Q01DX009 (ip), vehicle: water
  T/C: 91 % of control
endpoint: mean survival time, dose: 50.0 mg/kg/injection, schedule: Q01DX009 (ip), vehicle: water
  T/C: 90 % of control

## CCOC(=O)C(C(=O)c1ccccc1)C(c1ccccc1)C(C(=O)OCC)C(=O)c1ccccc1 (stereo unspecified)
[2]
  T/C: 94 % of control
endpoint: mean survival time, dose: 100.0 mg/kg/injection, schedule: Q04DX003 (ip), vehicle: saline with Tween-80
  T/C: 93 % of control
[3]
  T/C: 94 % of control
endpoint: mean survival time, dose: 200.0 mg/kg/injection, schedule: Q04DX003 (ip), vehicle: saline with Tween-80
  T/C: 90 % of control
endpoint: mean survival time, dose: 400.0 mg/kg/injection, schedule: Q01DX009 (ip), vehicle: saline with Tween-80
  T/C: 100 % of control
endpoint: mean survival time, dose: 400.0 mg/kg/injection, schedule: Q04DX003 (ip), vehicle: saline with Tween-80
  T/C: 98 % of control
